Measured values: patent US7989431B2, “2-propynyl adenosine analogs with modified 5′-ribose groups having A2A agonist activity” (University of Virginia Patent Foundation, priority 2004, dated 2011)
pEC50, pKi: −log10 of the molar value. Like-named read-outs stand apart in the source and are kept apart here.

How the values were obtained:
human neutrophils = test: Human neutrophil oxidative activity, luminol-enhanced chemiluminescence; format: cell-based; details: fMLP-stimulated peak chemiluminescence
Description: Chemiluminescence Methods: Luminol enhanced chemiluminescence, a measure of neutrophil oxidative activity, is dependent upon both superoxide production and mobilization of the granule enzyme myeloperoxidase. The light is emitted from unstable high-energy oxygen species such as hypochlorous acid and singlet oxygen generated by activated neutrophils.
Purified human neutrophils (2×10^6/ml) suspended in Hanks balanced salt solution containing 0.1% human serum albumin (HA), adenosine deaminase (1 U/mL) and rolipram (100 nM) were incubated (37° C.) in a water bath for 15 min with or without rhTNF(10 U/ml). Following incubation 100 µL aliquots of the PMN were transferred to wells (White walled clear bottom 96 well tissue culture plates Costar #3670; 2 wells/condition) containing […] and luminol (final concentration 100 µM) with or without adenosine agonist (final agonist concentrations 0.01-1000 nM). The plate was incubated 5 min (37° C.) and then fMLP (501 in HA; final concentration […]) was added to all wells.
Peak chemiluminescence was determined with a Victor 1420 Multilabel Counter in the chemiluminescence mode using the Wallace Workstation software. Data are presented as peak chemiluminescence as percent of activity in the absence of an adenosine agonist. The EC50 was determined using PRISM software. All compounds were tested with PMNs from three separate donors.
f-met-leu-phe (fMLP), luminol, superoxide dismutase, cytochrome C, fibrinogen, adenosine deaminase, and trypan blue were obtained from Sigma Chemical. Ficoll-hypaque was purchased from ICN (Aurora, Ohio), and Cardinal Scientific (Santa Fe, N. Mex.) and Accurate Chemicals and Scientific (Westerbury, N.Y.). Endotoxin (lipopolysaccharide; E. coli K235) was from List Biologicals (Campbell, Calif.). Hanks balanced salt solution (HBSS), and limulus amebocyte lysate assay kit were from BioWittaker (Walkersville, Md.). Human serum albumin (HSA) was from Cutter Biological (Elkhart, Ind.). Recombinant human tumor necrosis factor-alpha was supplied by Dianippon Pharmaceutical Co. Ltd. (Osaka, Japan). ZM241385 (4-(2-[7-amino-2-(2-furyl) [1,2,4]triazolo[2,3-a][1,3,5]triazin-5-yl amino]ethyl)phenol) was a gift from Simon Poucher, Zeneca Pharmaceuticals, Cheshire, UK. Stock solutions (1 mM and 10 mM in DMSO) were made and stored at −20° C.
Purified neutrophils (−98% neutrophils and >95% viable by trypan blue exclusion) containing <1 platelet per 5 neutrophils and <50 pg/ml endotoxin (limulus amebocyte lysate assay) were obtained from normal heparinized (10 U/ml) venous blood by a one step Ficoll-hypaque separation procedure (A. Ferrante et al., J. Immunol. Meth., 36, 109 (1980)).
Luminol-enhanced chemiluminescence, a measure of neutrophil oxidative activity, is dependent upon both superoxide production and mobilization of the lysosomal granule enzyme myeloperoxidase. The light is emitted from unstable high-energy oxygen species generated by activated neutrophils. Purified neutrophils (5-10×10^5/ml) were incubated in Hanks balanced salt solution containing 0.1% human serum albumin (1 ml) with the tested A2A agonist with or without rolipram and with or without tumor necrosis factor-alpha (1 U/ml) for 30 minutes at 37° C. in a shaking water bath. Then luminol (1×10^−4 M) enhanced f-met-leu-phe (1 mcM) stimulated chemiluminescence was read with a Chronologo Photometer (Crono-log Corp., Havertown, Pa.) at 37° C. for 2-4 minutes. Chemiluminescence is reported as relative peak light emitted (=height of the curve) compared to samples with tumor necrosis factor-alpha and without agonist or rolipram.

human A1 AR = biological target: T1, human A1 AR (Homo sapiens, UniProt P30542); test: Radioligand competition binding, human A1 AR; details: binding affinity; 125I-ABA; membranes of CHO K1 cells stably expressing human A1 AR
T1 construct: expressed in transfected cells; membranes
T1 sequence (P30542 1-326): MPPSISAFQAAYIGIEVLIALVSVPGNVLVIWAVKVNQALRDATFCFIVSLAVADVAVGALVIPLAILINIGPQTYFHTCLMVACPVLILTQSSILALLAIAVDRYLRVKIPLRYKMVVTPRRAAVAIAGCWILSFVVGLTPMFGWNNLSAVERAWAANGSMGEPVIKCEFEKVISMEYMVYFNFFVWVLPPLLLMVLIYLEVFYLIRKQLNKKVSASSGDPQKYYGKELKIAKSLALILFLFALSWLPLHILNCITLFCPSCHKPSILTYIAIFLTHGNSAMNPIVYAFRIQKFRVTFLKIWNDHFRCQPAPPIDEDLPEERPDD
Experimental: (§1) Sf9 cells were cultured in Grace's medium supplemented with 10% fetal bovine serum, 2.5 μg/ml amphotericin B and 50 μg/ml gentamycin in an atmosphere of 50% N2/50% O2. Viral infection was performed at a density of 2.5×10^6 cells/mL with a multiplicity of infection of two for each virus used. Infected cells were harvested 3 days post-infection and washed twice in insect PBS (PBS pH 6.3). Cells were then resuspended in lysis buffer (20 mM HEPES pH 7.5, 150 mM NaCl, 3 mM MgCl2, 1 mM β-mercaptoethanol (BME), 5 μg/mL leupeptin, 5 μg/mL pepstatin A, 1 μg/mL aprotinin, and 0.1 mM PMSF) and snap frozen for storage at −80° C. Cells were thawed on ice, brought to 30 mL total volume in lysis buffer, and burst by N2 cavitation (600 psi for 20 minutes). A low-speed centrifugation was performed to remove any unlysed cells (1000×g for 10 minutes), followed by a high-speed centrifugation (17,000×g for 30 minutes). The pellet from the final centrifugation was homogenized in buffer containing 20 mM HEPES pH 8, 100mM NaCl, 1% glycerol, 2 μg/mL leupeptin, 2 μg/mL pepstatin A, 2 μg/mL Aprotinin, 0.1 mM PMSF, and 10 μM GDP using a small glass homogenizer followed by passage through a 26 gauge needle. Membranes were aliquoted, snap frozen in liquid N2, and stored at −80° C. Membranes from cells stably expressing the human A1 AR(CHO K1 cells) or A3 AR(HEK 293 cells) were prepared as described (Robeva et al., 1996).
(§2) Radioligand binding to recombinant human A2A receptors in Sf9 cell membranes was performed using either the radio labeled agonist, ^125I-APE (Luthin et al., 1995) or the radio labeled antagonist, ^125I-ZM241385 (^125I-ZM). To detect the high affinity, GTPγS-sensitive state of A1 and A3AR, we used the agonist, ^125I-ABA (Linden et al., 1985; Linden et al., 1993). Binding experiments were performed in triplicate with 5 μg (A2A) or 25 μg (A1 and A3) membrane protein in a total volume of 0.1 mL HE buffer (20 mM HEPES and 1 mM EDTA) with 1 U/mL adenosine deaminase and 5 mM MgCl2 with or without 50 μM GTPγS. Membranes were incubated with radioligands at room temperature for three hours (for agonists) or two hours (for antagonists) in Millipore Multiscreen® 96-well GF/C filter plates and assays were terminated by rapid filtration on a cell harvester (Brandel, Gaithersburg, Md.) followed by 4×150 μl washes over 30 seconds with ice cold 10 mM Tris-HCl, pH 7.4, 10 mM MgCl2. Nonspecific binding was measured in the presence of 50 μM NECA. Competition binding assays were performed as described (Robeva et al., 1996) using 0.5-1 nM ^125I-APE, ^125I-ZM241385, or ^125I-ABA. […]

[1] = biological target: T2, recombinant human A2A receptors (Homo sapiens, UniProt P29274); test: Radioligand competition binding, recombinant human A2A receptors; details: binding affinity; 125I-APE or 125I-ZM241385; Sf9 cell membranes
T2 construct: expressed in transfected cells; host or cells: Sf9 insect cells, viral infection; membranes
Experimental: as §1, §2

A3 AR = biological target: T3, A3 AR (Homo sapiens, UniProt P0DMS8); test: Radioligand competition binding, human A3 AR; details: binding affinity; 125I-ABA; membranes of HEK 293 cells stably expressing human A3 AR
T3 construct: expressed in transfected cells; membranes
T3 sequence (P0DMS8 1-318): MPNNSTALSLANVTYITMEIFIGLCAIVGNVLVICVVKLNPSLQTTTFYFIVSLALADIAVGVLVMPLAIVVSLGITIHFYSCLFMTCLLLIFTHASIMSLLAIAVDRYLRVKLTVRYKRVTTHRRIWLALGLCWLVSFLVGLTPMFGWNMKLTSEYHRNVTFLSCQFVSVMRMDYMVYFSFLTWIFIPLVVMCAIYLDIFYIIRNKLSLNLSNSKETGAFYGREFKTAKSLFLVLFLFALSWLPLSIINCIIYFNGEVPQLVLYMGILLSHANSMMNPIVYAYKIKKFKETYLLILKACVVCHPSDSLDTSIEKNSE
Experimental: as §1, §2

[2] = human neutrophil experiment with Rolipram, read-out: Functional + Roli
[3] = human neutrophil experiment without Rolipram, read-out: Functional

T2 sequence (P29274 whole entry): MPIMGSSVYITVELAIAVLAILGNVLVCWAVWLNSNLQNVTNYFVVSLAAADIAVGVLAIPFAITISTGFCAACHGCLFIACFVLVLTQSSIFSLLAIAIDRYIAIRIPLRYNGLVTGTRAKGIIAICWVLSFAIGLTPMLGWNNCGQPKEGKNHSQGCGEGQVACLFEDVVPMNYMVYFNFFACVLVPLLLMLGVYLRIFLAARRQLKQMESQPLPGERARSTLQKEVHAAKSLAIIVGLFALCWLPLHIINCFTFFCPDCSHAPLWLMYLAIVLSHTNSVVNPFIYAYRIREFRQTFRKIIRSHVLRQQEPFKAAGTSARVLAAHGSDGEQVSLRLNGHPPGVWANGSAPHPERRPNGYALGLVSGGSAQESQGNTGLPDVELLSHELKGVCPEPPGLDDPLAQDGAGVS

| pEC50 (human neutrophils; [2]) | pEC50 (human neutrophils; [3]) | pKi (human A1 AR) | pKi [1] | pKi (A3 AR) | SMILES |
| --- | --- | --- | --- | --- | --- |
| 9.70 | 8.70 | 7.49 | 9.24 | 7.47 | COC(=O)C1CCC(CC#Cc2nc(N)c3ncn([C@@H]4O[C@H](C(=O)NC5CC5)C(O)C4O)c3n2)CC1 (stereo in doubt) [Example 1, 4-{3-[6-Amino-9-(5-cyclopropylcarbamoyl-3,4-dihydroxy-tetrahydro-furan-2-yl)-9H-purin-2-yl]-prop-2-ynyl}-cyclohexanecarboxylic acid methyl ester] |
| 9.70 | 8.70 | 7.24 | 9.15 | 6.61 | COC(=O)N1CCC(CC#Cc2nc(N)c3ncn([C@@H]4O[C@H](C(=O)NC5CC5)C(O)C4O)c3n2)CC1 (stereo in doubt) [Example 2, 4-{3-[6-Amino-9-(5-cyclopropylcarbamoyl-3,4-dihydroxy-tetrahydro-furan-2-yl)-9H-purin-2-yl]-prop-2-ynyl}-piperidine-1-carboxylic acid methyl ester] |
| 10.40 | 9.52 | 8.82 | 9.30 | 8.52 | C[C@@H]1CCC[C@@](O)(C#Cc2nc(N)c3ncn([C@@H]4O[C@H](C(=O)NC5CC5)C(O)C4O)c3n2)C1 (stereo in doubt) [Example 3, 5-[6-Amino-2-(1-hydroxy-3-methyl-cyclohexylethynyl)-purin-9-yl]-3,4-dihydroxy-tetrahydro-furan-2-carboxylic acid cyclopropylamide] |
| 9.70 | 8.70 | 7.48 | 9.22 | 7.35 | Nc1nc(I)nc2c1ncn2[C@@H]1O[C@H](C(=O)NC2CC2)C(O)C1O (stereo in doubt) [Example 4, 5-(6-Amino-2-iodo-purin-9-yl)-3,4-dihydroxy-tetrahydro-furan-2-carboxylic acid cyclopropylamide] |
